Assay results as given in US20070142450A1, “Novel urea derivatives and their medical use” (priority 2004, published 2007).

Key:
[1] = system: male Wistar rats; test: Morris Water Maze (MWM), scopolamine-induced impairment of spatial learning and memory; format: in vivo, rat
Source text: The Morris Water Maze (MWM) is the favored test in behavioral neuroscience for the study of hippocampal-dependent learning and memory (see Morris R G: Developments of a Water Maze procedure for studying spatial learning in the rat; J. Neurosci. Meth. 1984 11 47-60). It is a standardized behavioral task to test spatial navigation in rodents, and is a highly sensitive test to assess cognition in animals.
In the MWM performance animals have to remember the position of a submerged platform (10×10 cm) within a circular (Ø 150 cm) water tank using visual spatial cues. A number of eight (n=8) male Wistar rats were used for each group in each experiment. In four trials per day, for four consecutive acquisition days, they are released from different starting points close to the wall of the tank to find their way to the submerged platform. Spatial learning abilty is evaluated by latency to locate the platform.
This learning impairment was reversed by 30 mg/kg of Compound 1 of the invention (i.p. administration 30 minutes prior to test start).

Structure (SMILES) | melting point [°C] | further results
COc1ccc(Cl)cc1NC(=O)Nc1ccc([N+](=O)[O-])cc1O | 225 to 226 | 
O=C(Nc1cccc(C(F)(F)F)c1)Nc1c(O)cccc1[N+](=O)[O-] | 174 to 175 | 
Nc1cc(Cl)c(Cl)cc1NC(=O)Nc1cc(C(F)(F)F)ccc1Cl | 207 to 209 | 
O=C(Nc1cccc(C(F)(F)F)c1)Nc1ccc(O)c(Cl)c1 | 194 to 196 | 
Cc1cc(O)ccc1NC(=O)Nc1cccc(C(F)(F)F)c1 | 185 to 186 | 
O=C(Nc1cccc(C(F)(F)F)c1)Nc1cc(Cl)c(O)c(Cl)c1 | 215 to 218 | 
O=C(Nc1cc(Cl)c(O)c(Cl)c1)Nc1cc(C(F)(F)F)ccc1Cl | 213 to 221 | 
O=C(Nc1cccc(-c2ccccc2)c1)Nc1cc(Cl)c(O)c(Cl)c1 | 252 to 253 | 
O=C(Nc1ccc(-c2ccccc2)cc1)Nc1cc(Cl)c(O)c(Cl)c1 | 249 to 251 | 
O=C(Nc1ccc(-c2ccccc2)cc1)Nc1cc(Cl)ccc1O | 191 to 192 | 
Cc1cc(O)cc(NC(=O)Nc2cc(C(F)(F)F)ccc2Cl)c1 | 190 to 192 | 
Cc1cc(O)cc(NC(=O)Nc2cccc(C(F)(F)F)c2)c1 | 188 to 190 | 
Cc1cc(O)ccc1NC(=O)Nc1cc(C(F)(F)F)ccc1Cl | 210 to 211 | 
COc1ccc(Cl)cc1NC(=O)Nc1cc(C(F)(F)F)ccc1Cl | 172 to 176 | 
O=C(Nc1cc(Cl)ccc1O)Nc1cc(C(F)(F)F)ccc1Cl [Compound 1, N-(3-Chloro-6-hydroxy-phenyl)-N′-(2-chloro-5-trifluoromethyl-phenyl)urea] |  | Reversal of scopolamine-induced learning impairment (latency to locate the platform) ([1]; 30 mg/kg i.p. 30 minutes prior to test start, with 0.1 mg/kg Scopolamine s.c., four trials per day, four days): reversed
CN1[C@@H]2C[C@@H](OC(=O)[C@H](CO)c3ccccc3)C[C@H]1[C@@H]1O[C@@H]12 [Scopolamine, reference compound] |  | Effect on spatial reference memory as measured in MWM (latency to locate the platform) ([1]; s.c. administration 30 minutes prior to test start): significantly impairs
